According to the supplement of paper PMC13380429:

What was measured:
Conditions in all cases: 72 h
[1] = test system: Caco-2; assay: cell viability relative to DMSO; higher = less toxic
[2] = test system: Calu-3; assay: as above
[3] = test system: HepG2; assay: as above
[4] = test system: U2OS; assay: as above
[5] = test system: Vero E6; assay: as above
[6] = test system: Caco-2; assay: relative viability EC50 (midpoint between 100% and the lowest measured viability); higher = less toxic
[7] = test system: Calu-3; assay: as above
[8] = test system: HepG2; assay: as above
[9] = test system: Vero E6; assay: as above
[10] = test system: Caco-2; assay: drug sensitivity score (DSS) for viability; higher = more toxic; extreme values may be limits of the assay
[11] = test system: Calu-3; assay: as above
[12] = test system: HepG2; assay: as above
[13] = test system: U2OS; assay: as above
[14] = test system: Vero E6; assay: as above
[15] = test system: U2OS; assay: relative viability EC50 (midpoint between 100% and the lowest measured viability); higher = less toxic

| SMILES | cell viability ([1]; 1 nM) [%] | cell viability ([1]; 10 nM) [%] | cell viability ([1]; 100 nM) [%] | cell viability ([1]; 1000 nM) [%] | cell viability ([1]; 10000 nM) [%] | cell viability ([2]; 1 nM) [%] | cell viability ([2]; 10 nM) [%] | cell viability ([2]; 100 nM) [%] | cell viability ([2]; 1000 nM) [%] | cell viability ([2]; 10000 nM) [%] | cell viability ([3]; 1 nM) [%] | cell viability ([3]; 10 nM) [%] | cell viability ([3]; 100 nM) [%] | cell viability ([3]; 1000 nM) [%] | cell viability ([3]; 10000 nM) [%] | cell viability ([4]; 1 nM) [%] | cell viability ([4]; 10 nM) [%] | cell viability ([4]; 100 nM) [%] | cell viability ([4]; 1000 nM) [%] | cell viability ([4]; 10000 nM) [%] | cell viability ([5]; 1 nM) [%] | cell viability ([5]; 10 nM) [%] | cell viability ([5]; 100 nM) [%] | cell viability ([5]; 1000 nM) [%] | cell viability ([5]; 10000 nM) [%] | relative viability EC50 [6] [µM] | relative viability EC50 [7] [µM] | relative viability EC50 [8] [µM] | relative viability EC50 [9] [µM] | drug sensitivity score [10] | drug sensitivity score [11] | drug sensitivity score [12] | drug sensitivity score [13] | drug sensitivity score [14] | relative viability EC50 [15] [µM] |
| --- | --- | --- | --- | --- | --- | --- | --- | --- | --- | --- | --- | --- | --- | --- | --- | --- | --- | --- | --- | --- | --- | --- | --- | --- | --- | --- | --- | --- | --- | --- | --- | --- | --- | --- | --- |
| O=c1cc(-c2ccccc2)oc2cc(O)c(O)c(O)c12 [baicalein] | 96.2 | 99.7 | 96.9 | 99.2 | 77.1 | 105 | 101 | 103 | 103 | 87.5 | 92.1 | 102 | 90.8 | 101 | 104 | 99.9 | 97.5 | 101 | 95.2 | 62.6 | 91.4 | 98.3 | 93.1 | 97 | 104 | > 10 | > 10 | > 10 | > 10 | 0.9 | 0 | 0 | 2.6 | 0 |  |
| CCCCCCCCCCCCCCCC(=O)OC[C@H](COP(=O)([O-])OCC[N+](C)(C)C)OC(=O)CCCCCCCCCCCCCCC [colfosceril-palmitate] | 115 | 113 | 101 | 95.7 | 71.7 | 100 | 103 | 98.1 | 99.2 | 86.9 | 97.5 | 108 | 93.3 | 101 | 99.7 | 102 | 103 | 94.8 | 101 | 95.9 | 102 | 97.3 | 96.7 | 95.6 | 95.6 |  | > 10 | > 10 | > 10 | 1.9 | 0.2 | 0 | 0 | 0 | > 10 |
| CC(=O)OCC(=O)[C@@]1(O)CC[C@H]2[C@@H]3CCC4=CC(=O)C=C[C@]4(C)[C@@]3(Cl)[C@@H](Cl)C[C@@]21C [dichlorisone-acetate] | 105 | 103 | 99.7 | 105 | 110 | 98.9 | 107 | 100 | 89.2 | 102 | 96.4 | 94.5 | 99 | 99.3 | 92.4 |  |  |  |  |  | 105 | 102 | 102 | 98.7 | 105 | > 10 | > 10 | > 10 | > 10 | 0 | 0 | 0 |  | 0 |  |
| O=C(Cc1ccc(-c2ccccc2)cc1)Nc1ccccn1 [difenpiramide] | 98.4 | 107 | 100 | 107 | 82.9 | 107 | 99.3 | 96.9 | 96.4 | 102 | 117 | 118 | 109 | 110 | 43.6 |  |  |  |  |  | 106 | 111 | 104 | 103 | 98.5 | > 10 | > 10 | 3.89 | > 10 | 0.2 | 0 | 2.4 |  | 0 |  |
| COC(=O)Nc1nc2cc(Sc3ccccc3)ccc2[nH]1 [fenbendazole] | 94.2 | 95.8 | 104 | 81.3 | 66.2 | 98.1 | 86.1 | 97.7 | 83.6 | 86.4 | 103 | 105 | 93.3 | 79.1 | 41 | 103 | 97.8 | 101 | 83.5 | 61.7 | 105 | 108 | 104 | 90.2 | 46.7 |  | > 10 | 1.39 | 1.81 | 3.8 | 1 | 5.6 | 4.1 | 4.5 |  |
| CCCCC1=NC2(CCCC2)C(=O)N1Cc1ccc(-c2ccccc2-c2nnn[nH]2)cc1 [irbesartan] | 109 | 97.1 | 106 | 104 | 109 | 100 | 97.1 | 100 | 101 | 108 | 107 | 104 | 102 | 99.9 | 106 |  |  |  |  |  | 100 | 101 | 99.7 | 93.6 | 94.6 | > 10 | > 10 | > 10 | > 10 | 0 | 0 | 0 |  | 0 |  |
| NC(=O)c1cccnc1 [nicotinamide] | 100 | 107 | 94.9 | 99.2 | 101 | 107 | 114 | 120 | 110 | 94.1 | 114 | 103 | 101 | 101 | 90.2 |  |  |  |  |  | 107 | 108 | 102 | 104 | 99.5 | > 10 | > 10 | > 10 | > 10 | 0 | 0 | 0 |  | 0 |  |
